Data on three compounds can be found in paper PMC5641481 (Science (New York, N.Y.), 2017).

pIC50: −log10 of the molar value. Some results are limits rather than exact numbers.

For test [1], the target named is T1, ABHD6 (Homo sapiens, UniProt Q9BV23).
T1 sequence (Q9BV23 1-337): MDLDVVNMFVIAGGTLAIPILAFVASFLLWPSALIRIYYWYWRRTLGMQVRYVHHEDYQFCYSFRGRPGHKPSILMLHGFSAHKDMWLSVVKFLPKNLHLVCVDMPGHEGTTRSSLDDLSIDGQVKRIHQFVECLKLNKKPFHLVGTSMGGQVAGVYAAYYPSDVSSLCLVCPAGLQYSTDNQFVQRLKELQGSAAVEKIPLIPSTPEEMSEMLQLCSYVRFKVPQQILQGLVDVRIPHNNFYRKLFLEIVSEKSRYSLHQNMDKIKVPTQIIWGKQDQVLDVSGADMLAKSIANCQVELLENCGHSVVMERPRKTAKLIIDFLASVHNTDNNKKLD
Briefly: MS-based ABPP in SW620 cells. The format is cell-based.

Test [2] deals with T2, FAAH (Homo sapiens, UniProt O00519).
T2 sequence (O00519 1-579): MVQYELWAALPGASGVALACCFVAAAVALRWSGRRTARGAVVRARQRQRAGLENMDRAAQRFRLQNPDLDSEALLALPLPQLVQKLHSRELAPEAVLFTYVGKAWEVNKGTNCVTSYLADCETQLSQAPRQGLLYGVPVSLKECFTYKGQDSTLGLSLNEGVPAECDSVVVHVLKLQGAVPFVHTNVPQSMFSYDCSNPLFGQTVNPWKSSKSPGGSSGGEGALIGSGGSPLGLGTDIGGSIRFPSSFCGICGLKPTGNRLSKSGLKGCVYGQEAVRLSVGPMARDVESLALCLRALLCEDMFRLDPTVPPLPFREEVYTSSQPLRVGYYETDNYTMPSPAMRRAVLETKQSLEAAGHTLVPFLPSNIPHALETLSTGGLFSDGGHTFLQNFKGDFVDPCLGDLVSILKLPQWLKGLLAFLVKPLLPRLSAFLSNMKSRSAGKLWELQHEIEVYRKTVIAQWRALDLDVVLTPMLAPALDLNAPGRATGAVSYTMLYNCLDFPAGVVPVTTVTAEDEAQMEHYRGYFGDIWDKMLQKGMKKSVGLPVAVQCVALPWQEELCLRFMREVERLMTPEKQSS
Briefly: anandamide substrate hydrolysis assay, intact transfected HEK293T cells. The test is classed as cell-based. Conditions: human FAAH in transfected HEK293T cells, in situ.

Test [3] concerns the target T2, FAAH. Briefly: competitive gel-based ABPP, intact HEK293T cells. Conditions: in situ (4 h). The test is classed as cell-based.
Test [4] concerns the target T2, FAAH. Put plainly: ABPP of human frontal cortex proteome. Conditions: human frontal cortex proteome (post-mortem). The test is classed as biochemical.
Test [5] concerns the target T3, rat FAAH (Rattus norvegicus, UniProt P97612).
T3 sequence (P97612 1-579): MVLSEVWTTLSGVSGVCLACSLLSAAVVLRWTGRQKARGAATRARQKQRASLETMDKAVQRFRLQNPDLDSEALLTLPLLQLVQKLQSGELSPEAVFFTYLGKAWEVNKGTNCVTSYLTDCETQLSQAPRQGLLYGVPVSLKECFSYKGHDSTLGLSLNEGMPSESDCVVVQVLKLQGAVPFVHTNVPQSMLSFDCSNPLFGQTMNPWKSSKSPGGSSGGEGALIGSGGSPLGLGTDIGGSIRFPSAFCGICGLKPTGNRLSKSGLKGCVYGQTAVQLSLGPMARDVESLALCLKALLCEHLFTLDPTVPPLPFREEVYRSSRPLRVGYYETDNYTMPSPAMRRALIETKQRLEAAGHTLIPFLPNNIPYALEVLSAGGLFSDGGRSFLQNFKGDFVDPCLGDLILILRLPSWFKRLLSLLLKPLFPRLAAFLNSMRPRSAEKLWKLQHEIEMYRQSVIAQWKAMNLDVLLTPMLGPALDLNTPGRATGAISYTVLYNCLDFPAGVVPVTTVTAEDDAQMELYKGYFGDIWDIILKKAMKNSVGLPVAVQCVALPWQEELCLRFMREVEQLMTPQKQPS
Briefly: substrate hydrolysis assay. The format is biochemical. Conditions: in vitro.

In test [6] the target is T2, FAAH. Put plainly: anandamide substrate hydrolysis assay, HEK293T cell lysates. The format is biochemical. Conditions: in vitro.
Test [7] addresses T2, FAAH. Briefly: MS-based ABPP in SW620 cells. The test is classed as cell-based. Conditions: all tested concentrations (0.2, 10, and 50 μM).
Test [8] deals with T1, ABHD6. Put plainly: competitive gel-based ABPP, intact HEK293T cells. The test is classed as cell-based. Conditions: ABHD6, in situ (4 h).
The target in test [9] is T4, ABHD11 (Homo sapiens, UniProt Q8NFV4).
T4 sequence (Q8NFV4 1-306): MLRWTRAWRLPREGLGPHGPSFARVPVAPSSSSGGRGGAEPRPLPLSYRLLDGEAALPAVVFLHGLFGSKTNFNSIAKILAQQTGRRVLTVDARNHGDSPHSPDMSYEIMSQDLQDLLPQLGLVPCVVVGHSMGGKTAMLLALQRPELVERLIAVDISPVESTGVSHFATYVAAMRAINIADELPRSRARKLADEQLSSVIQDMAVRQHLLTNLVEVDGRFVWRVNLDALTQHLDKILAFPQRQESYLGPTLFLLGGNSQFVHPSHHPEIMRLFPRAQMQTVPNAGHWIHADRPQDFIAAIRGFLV
Put plainly: competitive gel-based ABPP, intact HEK293T cells. The test is classed as cell-based. Conditions: ABHD11, in situ (4 h).

Test [10] relates to other proteins of the endocannabinoid system, endocannabinoid-binding TRP ion channels. Briefly: interaction with other endocannabinoid system proteins and TRP channels.
In test [11] the target is PNPLA6 (Homo sapiens, UniProt Q8IY17). Conditions: PNPLA6, in situ (24 h), gel-based ABPP, HEK293T.
The target of test [12] is T2, FAAH. Put plainly: competitive gel-based ABPP, HEK293T cell lysates. The test is classed as biochemical. Conditions: in vitro, HEK293T recombinantly expressing human enzyme.
Test [13] concerns the target T5, FAAH2 (Homo sapiens, UniProt Q6GMR7).
T5 sequence (Q6GMR7 1-532): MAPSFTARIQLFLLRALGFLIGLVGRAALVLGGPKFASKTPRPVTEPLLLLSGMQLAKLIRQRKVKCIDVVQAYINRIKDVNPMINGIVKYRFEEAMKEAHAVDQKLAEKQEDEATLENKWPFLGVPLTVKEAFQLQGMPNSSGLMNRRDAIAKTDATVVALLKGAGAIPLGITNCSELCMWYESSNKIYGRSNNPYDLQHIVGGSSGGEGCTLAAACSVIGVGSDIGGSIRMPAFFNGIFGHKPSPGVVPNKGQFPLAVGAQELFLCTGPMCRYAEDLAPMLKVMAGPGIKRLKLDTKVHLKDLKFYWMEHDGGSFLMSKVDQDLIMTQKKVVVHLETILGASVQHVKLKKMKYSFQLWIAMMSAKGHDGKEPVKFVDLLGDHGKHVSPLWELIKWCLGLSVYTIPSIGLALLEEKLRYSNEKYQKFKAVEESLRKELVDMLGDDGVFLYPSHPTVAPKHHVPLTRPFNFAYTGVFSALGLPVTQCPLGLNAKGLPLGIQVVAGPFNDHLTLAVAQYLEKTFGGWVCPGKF
Briefly: competitive gel-based ABPP, intact HEK293T cells. The test is classed as cell-based. Conditions: FAAH2, in situ (4 h).

Test [14] addresses T1, ABHD6. Briefly: ABPP of human frontal cortex proteome. The format is biochemical. Conditions: human frontal cortex proteome (post-mortem).
Test [15] addresses T6, CES2 (Homo sapiens, UniProt O00748).
T6 sequence (O00748 27-559): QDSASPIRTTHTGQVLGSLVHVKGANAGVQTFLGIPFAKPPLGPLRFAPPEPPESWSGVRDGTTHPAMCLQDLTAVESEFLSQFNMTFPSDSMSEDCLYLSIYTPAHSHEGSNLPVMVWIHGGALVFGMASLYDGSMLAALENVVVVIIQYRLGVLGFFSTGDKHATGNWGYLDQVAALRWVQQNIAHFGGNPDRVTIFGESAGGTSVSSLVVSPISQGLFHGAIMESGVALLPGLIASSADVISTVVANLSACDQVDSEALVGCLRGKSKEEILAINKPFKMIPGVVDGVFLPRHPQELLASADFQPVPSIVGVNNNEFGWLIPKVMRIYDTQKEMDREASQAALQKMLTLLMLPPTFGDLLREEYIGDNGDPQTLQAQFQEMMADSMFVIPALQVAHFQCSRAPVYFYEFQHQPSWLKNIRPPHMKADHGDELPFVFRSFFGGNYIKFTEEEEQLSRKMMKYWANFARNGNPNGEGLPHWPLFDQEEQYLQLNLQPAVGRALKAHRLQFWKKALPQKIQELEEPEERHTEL
Briefly: competitive gel-based ABPP, intact HEK293T cells. The test is classed as cell-based. Conditions: CES2, in situ (4 h).

Chain of PNPLA6 (Q8IY17 whole entry): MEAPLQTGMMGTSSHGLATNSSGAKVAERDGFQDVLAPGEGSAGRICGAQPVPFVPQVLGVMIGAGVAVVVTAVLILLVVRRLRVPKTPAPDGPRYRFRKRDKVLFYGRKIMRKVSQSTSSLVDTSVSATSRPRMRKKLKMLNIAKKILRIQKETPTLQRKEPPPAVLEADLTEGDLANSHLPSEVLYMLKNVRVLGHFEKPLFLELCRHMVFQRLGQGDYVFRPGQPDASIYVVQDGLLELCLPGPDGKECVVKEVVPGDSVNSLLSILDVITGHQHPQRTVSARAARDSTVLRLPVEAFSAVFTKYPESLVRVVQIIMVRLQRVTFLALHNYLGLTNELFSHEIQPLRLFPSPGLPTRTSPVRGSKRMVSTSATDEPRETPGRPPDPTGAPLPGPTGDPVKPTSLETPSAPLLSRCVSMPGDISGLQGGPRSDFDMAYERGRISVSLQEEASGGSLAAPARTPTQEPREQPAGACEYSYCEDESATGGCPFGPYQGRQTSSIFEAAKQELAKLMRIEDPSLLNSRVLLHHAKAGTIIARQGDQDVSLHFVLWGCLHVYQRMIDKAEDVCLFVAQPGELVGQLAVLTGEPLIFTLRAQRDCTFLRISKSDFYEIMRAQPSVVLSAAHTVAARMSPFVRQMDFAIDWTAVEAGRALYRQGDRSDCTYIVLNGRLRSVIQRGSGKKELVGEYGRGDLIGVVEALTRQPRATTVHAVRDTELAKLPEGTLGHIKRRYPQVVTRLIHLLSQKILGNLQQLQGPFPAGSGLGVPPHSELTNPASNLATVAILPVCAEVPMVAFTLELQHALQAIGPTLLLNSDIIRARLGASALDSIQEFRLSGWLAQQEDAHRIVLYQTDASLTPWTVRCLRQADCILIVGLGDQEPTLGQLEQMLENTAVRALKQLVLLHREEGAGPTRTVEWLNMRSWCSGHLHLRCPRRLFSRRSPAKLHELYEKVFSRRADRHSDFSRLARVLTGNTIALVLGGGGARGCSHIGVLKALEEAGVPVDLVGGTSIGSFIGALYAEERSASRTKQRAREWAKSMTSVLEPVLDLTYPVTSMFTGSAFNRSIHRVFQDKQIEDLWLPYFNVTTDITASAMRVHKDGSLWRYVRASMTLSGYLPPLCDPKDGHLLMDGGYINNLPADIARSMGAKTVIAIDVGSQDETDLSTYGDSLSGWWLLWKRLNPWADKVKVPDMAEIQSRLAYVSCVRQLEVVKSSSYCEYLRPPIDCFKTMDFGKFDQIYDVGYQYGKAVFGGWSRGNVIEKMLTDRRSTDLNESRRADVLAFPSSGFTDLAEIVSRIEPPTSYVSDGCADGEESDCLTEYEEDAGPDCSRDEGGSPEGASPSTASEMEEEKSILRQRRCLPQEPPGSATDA

In the case of `CN(C(=O)n1cnc(-c2ccc[n+]([O-])c2)c1)C1CCCCC1` [BIA 10-2474], the “inhibition of ABHD6” value is greater than 90% in [1] (10 μM, 4 h) and greater than 90% in test [1] (50 μM, 24 h). The pIC50 in test [2] was 7.15 to 7.30; in test [3], 7.31; in [5], no more than 6.00; in test [6] (human FAAH), no more than 6.00; in [8] it was 7.09; in [9] it was less than 5.00. In addition, the results for the pIC50 in test [11], in [12] and in test [13] were 4.96, 5.12 and 6.40, respectively. The “cross-reactivity with FAAH” value in test [4] was “cross-reactivity”. Also, in test [7], the “engagement of human FAAH” value is reported as “fully engaged”. For the same compound, the “interaction with other proteins of the endocannabinoid system or endocannabinoid-binding TRP ion channels” value in [10] is “did not interact”. Also, the “cross-reactivity with ABHD6” value in test [14] is listed as “cross-reactivity”.
With `CN(C(=O)n1cnc(-c2cccnc2)c1)C1CCCCC1` [BIA 10-2639], the pIC50 in [15] is 6.20; in test [3] it was 7.31; in test [8], 7.10; in test [12] it was 5.39; in test [13], 7.00.
Regarding `O=C(Nc1cccnn1)N1CCC(=Cc2cccc(Oc3ccc(C(F)(F)F)cn3)c2)CC1` [PF04457845], the pIC50 in test [15] was less than 5.00; in [3] it was 7.96; in test [6] (FAAH), 8.00 to 9.00; in test [8] it was less than 5.00; in test [9] it was less than 5.00; in [11], less than 4.30. The pIC50 is 8.40 in [12] and 6.23 in test [13]. Further, the “engagement of human FAAH” value in test [7] is “fully engaged”. In addition, the “interaction with other proteins of the endocannabinoid system or endocannabinoid-binding TRP ion channels” value in [10] is reported as “did not interact”.
